Measurements from patent publication US5545637A, “Process for preparing pharmaceutical compositions containing crystalline anhydrous mycophenolate mofetil salts” (Syntex (U.S.A.) Inc., priority 1995, dated 1996).
Where a name gives a salt, the structure may show the parent alone.

Assays:
Assay type in all cases: physicochemical
[1] = Comparative solubility of MM salt forms
[2] = Comparative stability of MM salt forms; conditions: comparison of salt forms, in words
[3] = Solubility in typical intravenous formulation solutions; conditions: viewed over 3 days, typical intravenous formulation solutions (e.g., 5% dextrose solution or water suitable for injection), 4320 min

For `COc1c(C)c2c(c(O)c1C/C=C(\C)CCC(=O)OCCN1CCOCC1)C(=O)OC2` [crystalline anhydrous salt form of MM], the “increase in solubility over the monohydrate salt form” value ([1]; anhydrous vs monohydrate salt form) was “about a two-fold increase in solubility over the monohydrate salt form” and the stability [2] was “the same stability characteristics of the monohydrate salt form”.
In the case of `COc1c(C)c2c(c(O)c1C/C=C(\C)CCC(=O)OCCN1CCOCC1)C(=O)OC2` [2-(4-morpholino)ethyl-(E)-6-(1,3-dihydro-4-hydroxy-6-methoxy-7-methyl-3-oxo-5-isobenzofuranyl)-4-methyl-4-hexenoate hydrochloride], the solubility ([3]; hydrochloride) is reported as “approximately 84 mg/ml”.
In the case of `COc1c(C)c2c(c(O)c1C/C=C(\C)CCC(=O)OCCN1CCOCC1)C(=O)OC2` [MM in its monohydrate salt form], the stability [2] is reported as “more stable than MM in its amorphous salt form”.
In the case of `COc1c(C)c2c(c(O)c1C/C=C(\C)CCC(=O)OCCN1CCOCC1)C(=O)OC2` [crystalline monohydrate form], the solubility [3] is reported as “approximately 40 mg/ml”.
In the case of `COc1c(C)c2c(c(O)c1C/C=C(\C)CCC(=O)OCCN1CCOCC1)C(=O)OC2` [amorphous salt form], the solubility characteristics ([1]; amorphous vs monohydrate salt form, in words) is reported as “better solubility characteristics”.
